Assay results reported in BigSolDB 2.1.

CC(=O)c1c(C)c([N+](=O)[O-])c(C(C)(C)C)c([N+](=O)[O-])c1C
solubility (mole fraction)
Conditions	278.15 K	283.15 K	288.15 K	293.15 K	298.15 K	303.15 K	308.15 K	313.15 K	318.15 K
in DMAc	0.113	0.129	0.147	0.165	0.185	0.206	0.228	0.252	0.278
in DMF	0.0732	0.0856	0.0993	0.115	0.131	0.149	0.169	0.191	0.215
in THF	0.148	0.165	0.183	0.202	0.221	0.243	0.266	0.288	0.313
in acetonitrile	0.0141	0.0174	0.0213	0.0259	0.0314	0.0379	0.0455	0.0545	0.0644
in cyclohexane	0.00275	0.00348	0.00439	0.00547	0.0068	0.00853	0.0104	0.0127	0.0153
in ethanol	0.00201	0.00251	0.00304	0.00364	0.00435	0.00521	0.00622	0.00743	0.00869
in ethyl acetate	0.065	0.0744	0.0846	0.0959	0.108	0.121	0.136	0.151	0.168
in isopropanol	0.00159	0.002	0.00259	0.00332	0.00414	0.00521	0.00651	0.008	0.00982
in methanol	0.00127	0.00155	0.00188	0.00227	0.00272	0.00324	0.00385	0.00455	0.00533
in n-butanol	0.00299	0.0037	0.00455	0.00557	0.00679	0.00823	0.00993	0.0119	0.0141
in n-heptane	0.00184	0.00228	0.00281	0.00344	0.00419	0.00508	0.00613	0.00737	0.00878
in n-hexane	0.00164	0.00202	0.00248	0.00302	0.00365	0.0044	0.00527	0.00629	0.00744
